Test system: HCT116 MTAP-deleted cell lines
Assay: Cell viability assay for HCT116 isogenic pair (CellTitre-Glo, 7 days)
Type: cell-based
Details: Homo sapiens, HCT-116, 168 h, 7 days of treatment, cell line not given
Experimental: Control compounds were analyzed in parallel each time for quality control.
In Brief, on Day −1, a serial dilution of stock compounds in DMSO was performed using BioMek liquid handlers and dispensed using Echo acoustic dispenser into 384 well plates. Both tool compounds and sample compounds were spotted in the same plate for a dose response of PRMT5 inhibitors. Compound plates were stored as frozen until the cells were ready for seeding.
On Day 0, 100 HCT WT or HCT116 MTAP-deleted cells were seeded in compound-containing 384 well plates (50 μl per well) in RPMI 1640 media supplemented with 10% heat inactivated fetal bovine serum, Glutamax and penicillin streptomycin using EL460 liquid dispenser 5 μl cassette (BioTek, part no. 7170011). After equilibrating the plate in room temperature, the cells were incubated for 7 days inside the sealed incubator set at 37° C. with 90% humidity and 5% CO2.
On Day 7, the viability of cells was measured using a CTG assay kit (CellTitre-Glo; Promega cat no. G7573). Shortly, 40 μl per well of luminescent cell viability assay reagent were dispensed using EL460 liquid dispenser 5 μl cassette. CTG luminescence signal was measured using an EnVision plate reader (PerkinElmer) in accordance with manufacturer's instruction. The CCso values for each compound after 7 days of treatment were calculated using 4 parameter non-linear logistical curve fit.
For the cell viability assay ie CC50 shown in nM in Table 3.

| Structure (SMILES) | CC50 [nM] |
| --- | --- |
| Cn1ncc2c(N)nc3ccc(C(=O)N4CCO[C@@H]5Cc6cc(Br)ccc6[C@@H]54)cc3c21 (racemic) [Example Ca-12, (Rac)-(4-amino-1-methyl-1H-pyrazolo[4,3-c]quinolin-8-yl)(7-bromo-2,3,9,9a-tetrahydroindeno[2,1-b][1,4]oxazin-4(4aH)-yl)methanone] | 53 |
| C[C@@H]1CN(C(=O)c2cc3c(cn2)nc(N)c2cnn(C)c23)[C@H]2c3ccc(Br)cc3C[C@H]2O1 [Example Ca-50, (4-amino-1-methyl-1H-pyrazolo[4,3-c][1,7]naphthyridin-8-yl)((2R,4aS,9aR)-7-bromo-2-methyl-2,3,9,9a-tetrahydroindeno[2,1-b][1,4]oxazin-4(4aH)-yl)methanone] | 20 |
| [2H]C1([2H])CC[C@@H]2Oc3cc(C(F)(F)F)cc(F)c3[C@@H]2N1C(=O)c1cc2c3c(c(N)nc2cn1)COC3 [Example Ca-58, (4-amino-1,3-dihydrofuro[3,4-c][1,7]naphthyridin-8-yl)((4aS,9bS)-9-fluoro-7-(trifluoromethyl)-3,4,4a,9b-tetrahydrobenzofuro[3,2-b]pyridin-1(2H)-yl-2,2-d2)methanone] | 9 |
| Nc1nc2cnc(C(=O)N3CC[C@H]4C[C@@H]3c3c(Cl)cc(C(F)(F)F)cc3O4)cc2c2c1COC2 [Example Ca-60, (4-amino-1,3-dihydrofuro[3,4-c][1,7]naphthyridin-8-yl)((2S,6R)-7-chloro-9-(trifluoromethyl)-3,4-dihydro-2H-2,6-methanobenzo[b][1,5]oxazocin-5(6H)-yl)methanone] | 227 |
| C[C@@H]1CC[C@@H]2Oc3cc(OC(F)(F)F)ccc3[C@@H]2N1C(=O)c1cc2c(cn1)nc(N)c1cnn(C)c12 (racemic) [Example Ca-41, (Rac)-(4-amino-1-methyl-1H-pyrazolo[4,3-c][1,7]naphthyridin-8-yl)((2R,4aS,9bS)-2-methyl-7-(trifluoromethoxy)-3,4,4a,9b-tetrahydrobenzofuro[3,2-b]pyridin-1(2H)-yl)methanone] | 30 |
| CN(C(=O)c1cc2c(cn1)nc(N)c1cnn(C)c12)[C@H]1c2ccc(C(F)(F)F)cc2[C@H]2C[C@H]21 (single isomer, unassigned) [Example Ca-26] | 25 |
| Cn1ncc2c(N)nc3cnc(C(=O)N4CCO[C@@H]5Cc6cc(Br)ccc6[C@@H]54)cc3c21 [Example Ca-33, (4-amino-1-methyl-1H-pyrazolo[4,3-c][1,7]naphthyridin-8-yl)((4aS,9aR)-7-bromo-2,3,9,9a-tetrahydroindeno[2,1-b][1,4]oxazin-4(4aH)-yl)methanone] | 9 |
| Cn1ncc2c(N)nc3cnc(C(=O)N4CCC[C@@H]5Cc6cc(C(F)(F)F)ccc6[C@@H]54)cc3c21 (racemic) [Example Ca-24, (Rac)-(4-amino-1-methyl-1H-pyrazolo[4,3-c][1,7]naphthyridin-8-yl)((4aR,9bR)-7-(trifluoromethyl)-2,3,4,4a,5,9b-hexahydro-1H-indeno[1,2-b]pyridin-1-yl)methanone] | 42 |
| Cn1ncc2c(N)nc3ccc(C(=O)N4CCC[C@@H]5Oc6cc(C(F)(F)F)ccc6[C@@H]54)cc3c21 [Example Ca-5, (4-amino-1-methyl-1H-pyrazolo[4,3-c]quinolin-8-yl)((4aS,9bS)-7-(trifluoromethyl)-3,4,4a,9b-tetrahydrobenzofuro[3,2-b]pyridin-1(2H)-yl)methanone] | 8 |
| COc1ccc2c(c1)CO[C@H]1CCCN(C(=O)c3ccc4nc(N)c5cnn(C)c5c4c3)[C@@H]21 (racemic) [Example Ca-8, Rac-(4-amino-1-methyl-1H-pyrazolo[4,3-c]quinolin-8-yl)((4aS,10bS)-8-methoxy-2,3,4,4a,6,10b-hexahydro-1H-isochromeno[4,3-b]pyridin-1-yl)methanone] | 23 |
| C[C@H]1CN(C(=O)c2cc3c(cc2F)nc(N)c2cnn(C)c23)[C@H]2c3ccc(C(F)(F)F)cc3C[C@H]2O1 [Example Ca-22, (4-amino-7-fluoro-1-methyl-1H-pyrazolo[4,3-c]quinolin-8-yl)((2S,4aS,9aR)-2-methyl-7-(trifluoromethyl)-2,3,9,9a-tetrahydroindeno[2,1-b][1,4]oxazin-4(4aH)-yl)methanone] | 11 |
| Cn1ncc2c(N)nc3cnc(C(=O)N4CCO[C@@H]5Cc6cc(Cl)ccc6[C@@H]54)cc3c21 [Example Ca-35, (4-amino-1-methyl-1H-pyrazolo[4,3-c][1,7]naphthyridin-8-yl)((4aS,9aR)-7-chloro-2,3,9,9a-tetrahydroindeno[2,1-b][1,4]oxazin-4(4aH)-yl)methanone] | 36 |
| Nc1nc2cnc(C(=O)N3CCC[C@@H]4Oc5nc(C(F)(F)F)ccc5[C@@H]43)cc2c2c1COC2 (racemic) [Example Ca-32, Rac-(4-amino-1,3-dihydrofuro[3,4-c][1,7]naphthyridin-8-yl)((4aS,9bS)-7-(trifluoromethyl)-3,4,4a,9b-tetrahydrofuro[2,3-b:4,5-b′]dipyridin-1(2H)-yl)methanone] | 54 |
| Cn1ncc2c(N)nc3ccc(C(=O)N4CCOC5CCc6ccccc6C54)cc3c21 (stereo not shown) [Example Ca-20, 2,3,4a,5,6,10b-hexahydrobenzo[f][1,4]benzoxazin-1-yl-(4-amino-1-methyl-pyrazolo[4,3-c]quinolin-8-yl)methanone] | 46 |
| Cc1ccc2c(c1)C[C@H]1OCCN(C(=O)c3cc4c(cn3)nc(N)c3cnn(C)c34)[C@@H]21 [Example Ca-36, (4-amino-1-methyl-1H-pyrazolo[4,3-c][1,7]naphthyridin-8-yl)((4aS,9aR)-7-methyl-2,3,9,9a-tetrahydroindeno[2,1-b][1,4]oxazin-4(4aH)-yl)methanone] | 95 |
| Nc1nc2cnc(C(=O)N3CC[C@H]4C[C@@H]3c3c(F)cc(C(F)(F)F)cc3O4)cc2c2c1COC2 [Example Ca-59, (4-amino-1,3-dihydrofuro[3,4-c][1,7]naphthyridin-8-yl)((2S,6R)-7-fluoro-9-(trifluoromethyl)-3,4-dihydro-2H-2,6-methanobenzo[b][1,5]oxazocin-5(6H)-yl)methanone] | 17 |
| C[C@@H]1CN(C(=O)c2cc3c(cn2)nc(N)c2cnn(C)c23)[C@H]2c3ccc(Br)c(F)c3C[C@H]2O1 (single isomer, unassigned) [Example Ca-30] | 75 |
| Nc1nc2cnc(C(=O)N3CC[C@H]4C[C@@H]3c3ccc(C(F)(F)F)nc3O4)cc2c2c1COC2 [Example Ca-18, (4-amino-1,3-dihydrofuro[3,4-c][1,7]naphthyridin-8-yl)((2S,6R)-9-(trifluoromethyl)-3,4-dihydro-2H-2,6-methanopyrido[2,3-b][1,5]oxazocin-5(6H)-yl)methanone] | 34 |
| Cn1ncc2c(N)nc3ccc(C(=O)N4CCCC5OCc6cc(C(F)(F)F)ccc6C54)cc3c21 (stereo not shown) [Example Ca-9, (4-amino-1-methyl-1H-pyrazolo[4,3-c]quinolin-8-yl)(8-(trifluoromethyl)-2,3,4,4a,6,10b-hexahydro-1H-isochromeno[4,3-b]pyridin-1-yl)methanone] | 56 |
| C[C@@H]1CN(C(=O)c2cc3c(cn2)nc(N)c2cnn(C)c23)[C@H]2c3ccc(Cl)cc3C[C@H]2O1 (single isomer, unassigned) [Example Ca-37] | 22 |
| C[C@H]1CN(C(=O)c2cc3c(cn2)nc(N)c2cnn(C)c23)[C@H]2c3ccc(C(F)(F)F)cc3C[C@H]2O1 [Example Ca-13, (4-amino-1-methyl-1H-pyrazolo[4,3-c][1,7]naphthyridin-8-yl)((2S,4aS,9aR)-2-methyl-7-(trifluoromethyl)-2,3,9,9a-tetrahydroindeno[2,1-b][1,4]oxazin-4(4aH)-yl)methanone] | 17 |
| Cn1ncc2c(N)nc3cnc(C(=O)N4CC[C@H]5C[C@@H]4c4ccc(OC(F)F)cc45)cc3c21 [Example Ca-15, (4-amino-1-methyl-1H-pyrazolo[4,3-c][1,7]naphthyridin-8-yl)((1R,5S)-7-(difluoromethoxy)-1,3,4,5-tetrahydro-2H-1,5-methanobenzo[c]azepin-2-yl)methanone] | 10 |
| Cn1ncc2c(N)nc3cnc(C(=O)N4CCO[C@@H]5Cc6cc(C7CC7)ccc6[C@@H]54)cc3c21 [Example Ca-34, (4-amino-1-methyl-1H-pyrazolo[4,3-c][1,7]naphthyridin-8-yl)((4aS,9aR)-7-cyclopropyl-2,3,9,9a-tetrahydroindeno[2,1-b][1,4]oxazin-4(4aH)-yl)methanone] | 62 |
| Cn1ncc2c(N)nc3cc(F)c(C(=O)N4CCC[C@@H]5Oc6cc(C(F)(F)F)ccc6[C@@H]54)cc3c21 [Example Ca-4, (4-amino-7-fluoro-1-methyl-1H-pyrazolo[4,3-c]quinolin-8-yl)((4aS,9bS)-7-(trifluoromethyl)-3,4,4a,9b-tetrahydrobenzofuro[3,2-b]pyridin-1(2H)-yl)methanone] | 3 |
| C[C@H]1CN(C(=O)c2cc3c4c(c(N)nc3cn2)COC4)[C@H]2c3ccc(C(F)(F)F)cc3C[C@H]2O1 [Example Cb-1, (4-amino-1,3-dihydrofuro[3,4-c][1,7]naphthyridin-8-yl)((2S,4aS,9aR)-2-methyl-7-(trifluoromethyl)-2,3,9,9a-tetrahydroindeno[2,1-b][1,4]oxazin-4(4aH)-yl)methanone] | 71 |

— US20250154172A1, “PRMT5 INHIBITORS AND USES THEREOF” (Gilead Sciences, Inc., priority 2023, published 2025)
